“And” between values parts separate entries of the source, which are not always exact repeats. Equal entries are not always repeated. Where two headings read alike, the source gives them in different places.
Tests used:
[1] = target: T1, Shh (Mus musculus, UniProt Q62226); assay: Shh autoprocessing in stably transfected HK293 cells (immunoblot); format: cell-based; settings: added during the 24-hour induction period; doses up to 5-fold higher than those required to completely inhibit Shh signaling
T1 construct: expressed in transfected cells; host or cells: HK293 cells, Ecdysone-Inducible Mammalian Expression System (Invitrogen)
Text: To examine potential effects of these compounds on Shh processing we utilized HK293 cells cultured in lipid-depleted serum and carrying a stable integrated construct for expression of Shh under ecdysone-inducible control (47). Shh protein expression in these cells can be induced by addition of muristerone A, an ecdysone analog.
• 1. M. Hammerschmidt, A. Brook, A. P. McMahon, Trends Genet, 13, 14-21 (1997). • 2. C. Chiang, et al., Nature, 383,407-413 (1996). • 3. Y. Tanabe, T. M. Jessell, Science 274, 1115-1123 (1996). • 4. T. P. Yamaguchi, Curr. Opin. Genet. Dev. 7, 513-518 (1997). • 5. N. Shubin, C. Tabin, S. Carroll, Nature 388, 639-648 (1997). • 6. A. E. Oro, et al., Science 276, 817-821 (1997). • 7. M. M. Cohen, K. K. Sulik, J. Craniofac. Genet. Deve. Biol. 12, 196-244 (1992). • 8. E. Belloni, et al., Nature Genet. 14, 353-356 (1996). • 9. E. Roessler, et al., Nature Genet. 14, 357-360 (1996). • 10. J. A. Porter, et al., Nature 374, 363-366 (1995). • 11. J. A. Porter, K. E. Young, P. A. Beacy, Science 274, 255-259 (1996b). • 12. J. J. Lee, et al., Science 266, 1528-1537 (1994). • 13. J. A. Porter, et al., Cell 86, 21-34 (1996a). • 14. C. Roux, Arch. Franc. Pediatr. 21, 451-464 (1964). • 15. C. Roux, C. R. Soc. Biol. 160, 1353-1357 (1966). • 16. D. B. Dehart, L. Lanoue, G. S. Tinit, K. K. Sulik, Am J. Med. Genet. 68, 328-337 (1997). • 17. M. Kraml, J. F. Bagli, D. Dvornik, Biochem. and Biophysical Res. Com. 15, 455-457 (1964). • 18. J. Avigan, D. Steinberg, H. E. Vroman, M. J. Thompson, E. Mosettig, J. Biol. Chem 235, 3123-3126 (1960). • 19. R. B. Clayton, A. N. Nelson, I. D. Frantz Jr., J. Lipid Res. 4, 166-178 (1963). • 20. J. Aufenanger, J. Pill, K. Stegmeier, F. H. Schmidt, Horm. Metabol. Res. 17, 612-613 (1986). • 21. […] G. Popjak, A. Meenean, E. J. Parish, W. D. Nes, J. Biol. Chem 264,6230-6238 (1989). • 23. H. Yoshikawa, Brain Deve. 13, 115-120 (1991). • 24. R. I. Kelley, et al., Am. J. Of Med. Gen. 66, 478-484 (1996). • 25. G. S. Tint, et al., New England Journal of Medicine 330, 107-113 (1994). • 26. T.E. Willnow, et al., Proc. Natl. Acad. Sci USA 93, 8460-8464 (1996). • 27. S. Stefansson, D. A. Chappell, K. M. Argraves, D. K. Strickland, W. S. Argraves, J. Biol. Chem. 270, 19417-19421 (1995). • 28. W. Binns, L. F. James, J. L. Shupe, G. Everett, Am. J. Vet. Res. 24, 1164-1174 (1963). • 29. R. F. Keeler, W. Binns, Teratology 1, 5-10 (1968). • 30. P. A. Beachy, et al., CSH Symp. Quant. Biol. 62, in press (1997). • 31. E. D. Carstea, et al., Science 277, 228-231 (1997). • 32. S. K. Loftus, et al., Science 277, 232-235 […]. • 33. L. V. Goodrich, L. Milenkovic, K. M. Higgins, M. P. Scott, Science 277, 1109-1113 (1997). • 34. H. Kumagai, K. T. Chun, R. D. Simoni, J. Biol. Chem. 270, 19107-19113 (1995). • 35. G. Gil, J. R. Faust, D. J. Chin, J. L. Goldstien, M. S. Brown, Cell 41, 249-258 (1985). • 36. X. Hua, A. Nohturfft, J. L. Goldstein, M. S. Brown, Cell 87, 415-426 (1996). • 37. M. S. Brown, J. L. Goldstein, Cell 89, 331-340 (1997). • 38. M. M. Bryden, C. Perry, R. F. Keeler, Teratology 8, 18-28 (1973). • 39. M. L. Omnell, F. R. P. Sim, R. F. Keeler, L. C. Harne, K. W. Brown, Teratology 42, 105-119 (1990). • 40. Fertile chick eggs (white leghorn) were placed in a humidified incubator at 37.5° C in a rotating tray for 14 hours. […] The window was taped and the eggs incubated for an additional 4 days. The embryos were dissected in phosphate buffered saline (PBS, pH 7.2).

[2] = tested on: endogenous Shh signaling; assay: Midline neural plate/notochord explant assay of endogenous Shh signaling; format: cell-based, chick
[3] = tested on: primary human lymphoblasts; assay: Cholesterol Biosynthesis Assay (sterol profiles of cultured cells); format: cell-based; settings: for Percent Sterols: 2. C28 Sterols / Percent Sterols: 3. C29 Sterols / Percent Sterols: Cholesterol / Percent Sterols: d. Zymosterol / Percent Sterols: e. Cholesta-8(14)-en-3ß-ol / Percent Sterols: f. 7 Dehydrocholesterol / Total Sterols (µg/mg protein) / Percent Sterols: c. Cholesta-7,24-dien-3ß-ol: five days
[4] = tested on: Shh-N; assay: Intermediate neural plate explant response to exogenous Shh-N protein; format: cell-based, chick
[5] = tested on: Shh protein; assay: Shh protein localization in floor plate cells of treated chick embryos; format: in vivo; settings: embryos treated after floor plate induction
[6] = tested on: chick embryos
Text: • 1. M. Hammerschmidt, A. Brook, A. P. McMahon, Trends Genet, 13, 14-21 (1997). • 2. C. Chiang, et al., Nature, 383,407-413 (1996). • 3. Y. Tanabe, T. M. Jessell, Science 274, 1115-1123 (1996). • 4. T. P. Yamaguchi, Curr. Opin. Genet. Dev. 7, 513-518 (1997). • 5. N. Shubin, C. Tabin, S. Carroll, Nature 388, 639-648 (1997). • 6. A. E. Oro, et al., Science 276, 817-821 (1997). • 7. M. M. Cohen, K. K. Sulik, J. Craniofac. Genet. Deve. Biol. 12, 196-244 (1992). • 8. E. Belloni, et al., Nature Genet. 14, 353-356 (1996). • 9. E. Roessler, et al., Nature Genet. 14, 357-360 (1996). • 10. J. A. Porter, et al., Nature 374, 363-366 (1995). • 11. J. A. Porter, K. E. Young, P. A. Beacy, Science 274, 255-259 (1996b). • 12. J. J. Lee, et al., Science 266, 1528-1537 (1994). • 13. J. A. Porter, et al., Cell 86, 21-34 (1996a). • 14. C. Roux, Arch. Franc. Pediatr. 21, 451-464 (1964). • 15. C. Roux, C. R. Soc. Biol. 160, 1353-1357 (1966). • 16. D. B. Dehart, L. Lanoue, G. S. Tinit, K. K. Sulik, Am J. Med. Genet. 68, 328-337 (1997). • 17. M. Kraml, J. F. Bagli, D. Dvornik, Biochem. and Biophysical Res. Com. 15, 455-457 (1964). • 18. J. Avigan, D. Steinberg, H. E. Vroman, M. J. Thompson, E. Mosettig, J. Biol. Chem 235, 3123-3126 (1960). • 19. R. B. Clayton, A. N. Nelson, I. D. Frantz Jr., J. Lipid Res. 4, 166-178 (1963). • 20. J. Aufenanger, J. Pill, K. Stegmeier, F. H. Schmidt, Horm. Metabol. Res. 17, 612-613 (1986). • 21. […] G. Popjak, A. Meenean, E. J. Parish, W. D. Nes, J. Biol. Chem 264,6230-6238 (1989). • 23. H. Yoshikawa, Brain Deve. 13, 115-120 (1991). • 24. R. I. Kelley, et al., Am. J. Of Med. Gen. 66, 478-484 (1996). • 25. G. S. Tint, et al., New England Journal of Medicine 330, 107-113 (1994). • 26. T.E. Willnow, et al., Proc. Natl. Acad. Sci USA 93, 8460-8464 (1996). • 27. S. Stefansson, D. A. Chappell, K. M. Argraves, D. K. Strickland, W. S. Argraves, J. Biol. Chem. 270, 19417-19421 (1995). • 28. W. Binns, L. F. James, J. L. Shupe, G. Everett, Am. J. Vet. Res. 24, 1164-1174 (1963). • 29. R. F. Keeler, W. Binns, Teratology 1, 5-10 (1968). • 30. P. A. Beachy, et al., CSH Symp. Quant. Biol. 62, in press (1997). • 31. […]

[7] = tested on: rat hepatoma cells; assay: Cholesterol Esterification Assay (esterification of plasma membrane cholesterol); format: cell-based
Text: Table 1. […] Table 1. Effects of synthetic and plant-derived compounds on cholesterol homeostasis. […]

[8] = tested on: BMP7; assay: Neural plate explant response to BMP7 (migratory HNK-1 positive cells); format: cell-based, chick; settings: 10 µM, 100 ng/ml BMP7, ventral neural plate explants
[9] = target: T2, His6Hh-C (Drosophila melanogaster, UniProt Q02936); assay: In vitro Hh autoprocessing reaction with purified components; format: biochemical
T2 construct: made in house

[10] = read-out: Percent Inhibition (incorporation of label into cholesteryl ester*) ^3H-Cholesterol
[11] = read-out: Percent Inhibition (incorporation of label into cholesteryl ester*) ^14C-Oleic Acid

T2 sequence (Q02936 252-471): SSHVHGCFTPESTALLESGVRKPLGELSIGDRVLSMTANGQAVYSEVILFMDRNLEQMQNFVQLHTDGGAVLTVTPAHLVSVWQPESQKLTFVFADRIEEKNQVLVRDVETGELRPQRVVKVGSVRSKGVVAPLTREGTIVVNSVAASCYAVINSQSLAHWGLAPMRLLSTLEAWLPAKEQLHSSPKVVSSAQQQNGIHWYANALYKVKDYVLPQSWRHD
T1 sequence (Q62226 25-437): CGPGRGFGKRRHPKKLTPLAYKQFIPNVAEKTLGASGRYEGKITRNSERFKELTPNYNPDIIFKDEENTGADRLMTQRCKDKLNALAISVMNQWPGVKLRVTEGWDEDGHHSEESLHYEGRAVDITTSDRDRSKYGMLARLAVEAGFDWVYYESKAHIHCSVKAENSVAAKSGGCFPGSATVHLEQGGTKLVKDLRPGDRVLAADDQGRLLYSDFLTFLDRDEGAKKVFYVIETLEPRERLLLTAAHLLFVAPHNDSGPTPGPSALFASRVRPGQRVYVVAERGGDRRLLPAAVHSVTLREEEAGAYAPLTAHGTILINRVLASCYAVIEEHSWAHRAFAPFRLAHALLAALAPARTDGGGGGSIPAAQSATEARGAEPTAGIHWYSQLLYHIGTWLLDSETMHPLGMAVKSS

## CC1=C2C(=O)[C@H]3[C@@H](CC=C4C[C@@H](O)CC[C@@]43C)[C@@H]2CC[C@]12O[C@@H]1C[C@H](C)CN[C@H]1[C@H]2C [Jervine, jervine]
[1]
  Shh-Np production and accumulation of unprocessed precursor: did not diminish Shh-Np production nor induce accumulation of unprocessed precursor
[2]
  Higher doses that fully inhibit HNF3β and Isl-1 induction: 4.0 µM
  Intermediate doses that block induction of HNF3β while permitting induction of Isl-1: 0.5 µM
[3]
  Percent Sterols: a. Desmosterol: 2.7% and 2.5% and 2.4%
[3]; 1.25 µM
  Percent Sterols: 2. C28 Sterols: 1.2%
  Percent Sterols: 3. C29 Sterols: 0.8%
  Percent Sterols: Cholesterol: 90%
  Percent Sterols: d. Zymosterol: 1.7%
  Percent Sterols: e. Cholesta-8(14)-en-3ß-ol: 1.0%
  Percent Sterols: f. 7 Dehydrocholesterol: 1.5%
  Total Sterols (µg/mg protein): 8.8 µg/mg protein
[3]; 2.5 µM
  Percent Sterols: 2. C28 Sterols: 0.7%
  Percent Sterols: 3. C29 Sterols: 0.8%
  Percent Sterols: Cholesterol: 90%
  Percent Sterols: c. Cholesta-7,24-dien-3ß-ol: 0.5%
  Percent Sterols: d. Zymosterol: 2.0%
  Percent Sterols: e. Cholesta-8(14)-en-3ß-ol: 1.7%
  Percent Sterols: f. 7 Dehydrocholesterol: 1.4%
  Total Sterols (µg/mg protein): 8.4 µg/mg protein
[3]; 5.0 µM
  Percent Sterols: 2. C28 Sterols: 0.7%
  Percent Sterols: 3. C29 Sterols: 1.6%
  Percent Sterols: Cholesterol: 88%
  Percent Sterols: c. Cholesta-7,24-dien-3ß-ol: 0.5%
  Percent Sterols: d. Zymosterol: 2.3%
  Percent Sterols: e. Cholesta-8(14)-en-3ß-ol: 2.3%
  Percent Sterols: f. 7 Dehydrocholesterol: 1.3%
  Total Sterols (µg/mg protein): 10 µg/mg protein
[4]
  concentration that inhibits the repression of Pax7 expression by 2 nM Shh-N: 0.125 µM
  doses at which HNF3β and Isl-1 induction are completely blocked: 0.5 µM
  intermediate levels at which induction of HNF3β is blocked while induction of Isl-1 is maintained or expanded: 0.25 µM
[5]
  localization of Shh protein within floor plate cells: normal apical localization of Shh protein
[6]; in ovo exposure at the intermediate to definitive streak stage, Fig. 2: 10 µM jervine
  Holoprosencephaly induced in chick embryos: induced external malformations characteristic of HPE
[6]; in ovo, highest concentrations tested, 50µM
  embryos displayed normal morphology: 5/10
[7]; [10]
  inhibition at 2.5 µM: 24%
  inhibition at 5 µM: 44%
  inhibition at 10 µM: 50%
[7]; [11]
  inhibition at 2.5 µM: 28%
  inhibition at 5 µM: 36%
  inhibition at 10 µM: 49%
[8]
  Induction of migratory HNK-1 positive cells by BMP7: not inhibited
[9]
  His6Hh-C autocleavage reaction in the presence of compound without sterol: does not proceed
  interference with cholesterol-stimulated autoprocessing: does not interfere with autoprocessing
